PMC11847541, “Liver fatty acid binding protein FABP1 transfers substrates to cytochrome P450 4A11 for catalysis” (The Journal of Biological Chemistry, 2025)
Several values for one entry are separate records, joined by “and”; a condition that tells them apart may be missing. Equal values may be shown once. Read-outs that look alike come from different tables or passages of the source. Each block holds one compound with its values, some of them ahead of it.

Target: T1, FABP1 (Homo sapiens, UniProt P07148)
T1 construct: GST (N, cleaved yes); made in house; host or cells: Escherichia coli DH5α
T1 sequence (P07148 with tags, fused parts or gaps): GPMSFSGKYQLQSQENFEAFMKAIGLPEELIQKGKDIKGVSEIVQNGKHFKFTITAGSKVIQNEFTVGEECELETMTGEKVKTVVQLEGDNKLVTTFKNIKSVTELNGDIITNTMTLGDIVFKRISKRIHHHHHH
Test: DAUDA displacement fluorescence titrations of DAUDA–FABP1 with fatty acids, fit in KinTek Explorer
Format: binding
Text: The FABP–DAUDA system was used to screen saturated fatty acids (C12 to C18) for binding to FABP, and the Kd values were estimated in competition with the fluorophore (using its known Kd) with the kinetic modeling software KinTek Explorer. The general model is shown in Fig. 5A, where the substrate is competed against the fluorescent DAUDA–FABP1 complex for binding, yielding a ternary DAUDA–FABP1–substrate complex that is accompanied by an attenuation in fluorescence.
Figure 5 Fluorescence titrations of DAUDA–FABP1 with fatty acids (“forward” titrations).A, model of all binding equilibria accounted for in the DAUDA displacement assays. In the fluorescence assays (λex = 335 nm), DAUDA (D) binds to FABP1 (F) to form a fluorescent (indicated with yellow flash) complex (FD), with which a lipid (S) is then competed against for binding. The binding of S attenuates the fluorescence (denoted with a smaller yellow flash) and forms a ternary complex (FDS). High concentrations of S may completely displace D to form FSS, a spectroscopically silent complex. Using this method, fluorescence titrations were carried out with the fatty acids (B) laurate, (C) myristate, (D) palmitate, (E) 16-hydroxypalmitate, and (F) stearate. Fluorescence at the emission maximum (482 nm) was monitored (as in Fig. 4) and normalized to the starting fluorescence (i.e., the FD complex prior to the addition of S). Each data point corresponds to one independent replicate. DAUDA, 11-dansylaminoundecanoic acid; FABP1, fatty acid binding protein.
For the titrations with lipids, solutions of FABP1 (0.5 μM) and DAUDA (0.25 μM) were prepared such that the fluorescent species was not present in excess ([75]). A baseline was recorded with phosphate buffer, and a starting (basis) spectrum was recorded of the FABP–DAUDA complex (1 ml). The lipid solutions were gradually added to the cuvette with gentle mixing (pipetting up and down ∼7× with a pipette tip), and spectra were recorded (Fig. S12A). Control titrations were also performed the same day with solvent alone (Fig. S12B) as a normalizing factor for the lipid titrations as fluorescence attenuation was also observed to a much lesser degree as a solvent effect (Fig. S12C, D). […] The data were processed such that within the lipid titration and the solvent titration, the F482 values were normalized to the starting value (the initial FABP1–DAUDA complex with nothing added, set to 100%). The relative fluorescence of the lipid titration was then normalized to the relative fluorescence of the solvent titration to adjust for fluorescence attenuation observed in the solvent titration (presumably from altering the fluorophore environment). Thus, the data were processed according to y=(F482/F482(initial))lipid/(F482/F482(initial))solvent , and the resulting values were plotted as a function of lipid concentration (Fig. S12E). The curve was imported into KinTek Explorer ([76]) and was fit to a kinetic model (Fig. S13) to determine the Kd values (Table 1). Within the KinTek software, all fluorescent species required fluorescence scaling factors to convert signal to concentration. Scaling factors for the FABP–DAUDA complex, FABP–DAUDA–lipid complex, and DAUDA alone were 460, 92, and 8, respectively.
Figure S12. Data processing for FABP1 titration with palmitate. Fluorescence spectrum of increasing additions of (A) palmitate (0-2 µM, added in C2H5OH) and (B) C2H5OH to a mixture of DAUDA (0.25 µM) and FABP1 (0.5 µM), performed as described in the Experimental Methods (see “Titrations of FABP1 with lipids, DAUDA”). C, fluorescence values at 482 nm (F482) from the titrations presented in parts A and B are normalized to the starting values (DAUDA-FABP1 complex, no volume added). Data are reported as a function of volume of titrant added to the cuvette (black, C2H5OH alone; red, palmitate in C2H5OH). […]

[1] = lipid binding to DAUDA-bound FABP1 (DAUDA displacement), read-out: Kd, FD + S ↔ FDS
[2] = lipid binding to apo-FABP1, estimated via kinetic modeling, read-out: Kd, F + S ↔ FS
[3] = lipid binding to ternary complex FDS (full displacement of DAUDA), low-affinity site, read-out: Kd, FDS + S ↔ FSS + D

SMILES: O=C(O)CCCCCCCCCCCCCCCO [16-OH Palmitate (C16), 16-hydroxypalmitate]
- koff, F + S ↔ FS (lipid (S) binding to apo-FABP1 (F), kinetic modeling, on-rate 9.0 × 10^7 M^−1 s^−1): 47 s⁻¹
- Kd [1]: 15 µM
- koff, FD + S ↔ FDS (lipid binding to DAUDA-bound FABP1 (FD), on-rate 2.3 × 10^7 M^−1 s^−1): 350 s⁻¹
- Kd [2]: 0.52 µM
- koff, FDS + S ↔ FSS + D (lipid binding to ternary complex FDS (full displacement of DAUDA)): 1500 s⁻¹
- Kd [3]: 63 µM

- affinity difference between the two FABP1 binding sites: > 250 fold
- koff of palmitate from FABP1 relative to binding of palmitate (1–10 μM) to P450 4A11 (faster): 10–100 fold
- remaining activity at 0.01 µM (lipid 0.01 µM, FABP1 0.5 µM, DAUDA 0.25 µM, F482 normalized, read-out: % Fluorescence): 91%
- remaining activity at 0.025 µM (lipid 0.025 µM, FABP1 0.5 µM, DAUDA 0.25 µM, F482 normalized): 85.5%
- remaining activity at 0.05 µM (lipid 0.05 µM, FABP1 0.5 µM, DAUDA 0.25 µM, F482 normalized): 84.5%
- remaining activity at 0.075 µM (lipid 0.075 µM, FABP1 0.5 µM, DAUDA 0.25 µM, F482 normalized): 79.1%
- remaining activity at 0.1 µM (lipid 0.1 µM, FABP1 0.5 µM, DAUDA 0.25 µM, F482 normalized, read-out: % Fluorescence): 74.5%
- remaining activity at 0.15 µM (lipid 0.15 µM, FABP1 0.5 µM, DAUDA 0.25 µM, F482 normalized): 67.2%
- remaining activity at 0.2 µM (lipid 0.2 µM, FABP1 0.5 µM, DAUDA 0.25 µM, F482 normalized): 60.3%
- remaining activity at 0.25 µM (lipid 0.25 µM, FABP1 0.5 µM, DAUDA 0.25 µM, F482 normalized): 55.8%
- remaining activity at 0.35 µM (lipid 0.35 µM, FABP1 0.5 µM, DAUDA 0.25 µM, F482 normalized): 42.4%
- remaining activity at 0.45 µM (lipid 0.45 µM, FABP1 0.5 µM, DAUDA 0.25 µM, F482 normalized): 36.3%
- remaining activity at 0.6 µM (lipid 0.6 µM, FABP1 0.5 µM, DAUDA 0.25 µM, F482 normalized, read-out: % Fluorescence): 30.3%
- remaining activity at 0.9 µM (lipid 0.9 µM, FABP1 0.5 µM, DAUDA 0.25 µM, F482 normalized): 21.6%
- remaining activity at 1.15 µM (lipid 1.15 µM, FABP1 0.5 µM, DAUDA 0.25 µM, F482 normalized): 20.5%
- remaining activity at 1.4 µM (lipid 1.4 µM, FABP1 0.5 µM, DAUDA 0.25 µM, F482 normalized): 19.4%
- remaining activity at 1.9 µM (lipid 1.9 µM, FABP1 0.5 µM, DAUDA 0.25 µM, F482 normalized): 20.4%
- koff (lipid (S) binding to apo-FABP1 (F), kinetic modeling, on-rate 9.0 × 10^7 M^−1 s^−1, read-out: koff, F + S ↔ FS): 4.1 s⁻¹
- Kd [1]: 0.01 µM
- koff (lipid binding to DAUDA-bound FABP1 (FD), on-rate 2.3 × 10^7 M^−1 s^−1, read-out: koff, FD + S ↔ FDS): 0.24 s⁻¹
- Kd [2]: 0.046 µM
- Kd [3]: 10 µM
- koff (lipid binding to ternary complex FDS (full displacement of DAUDA), read-out: koff, FDS + S ↔ FSS + D): 240 s⁻¹
- tighter binding of palmitate to FABP1 than to P450 4A11 (ratio of Kd values): > 100 fold and 100 fold
SMILES: CCCCCCCCCCCCCCCC(=O)O [Palmitate (C16), palmitate]
